Experimental data as given in patent US5804553A, “Prophenins - antibiotic peptides” (University of California, priority 1994, dated 1998).
Where no end group is shown, it is not given here.

Legend:
C. albicans, strain 820 = test: radial diffusion assay in agarose gels; type: cell-based; conditions: for inhibitory activity (FIG. 4c): at reasonable concentrations; for minimal microbicidal concentration: Table 2
Procedure: (§1) Aliquots (66 μl) of each fraction were dried by vacuum centrifugation, and resuspended in approximately 6.6 μl of 0.01% acetic acid. Five μl samples of this concentrate were tested for antimicrobial activity against E. coli ML-35, L. monocytogenes, Strain EGD and C. albicans, strain 820 by radial diffusion and gel overlay techniques (Lehrer, R. I. et al. J Immunol Meth (1991) 137:167-173). Active fractions were further examined by acid-urea PAGE and SDS-PAGE. Prophenins emerged from the P10 column in fractions 38-43 (39.6 ml total volume), which contained a total of 18 mg protein by BCA analysis.
(§2) The radial diffusion assay in agarose gels as described above was also used to test the activity of the purified prophenins. Samples of 5 μL each were added to 3 mm wells in thin gels composed of 10 mM sodium phosphate, 30 mg/ml trypticase soy broth powder in 1% agarose and containing approximately 4×10^5 CFU/ml of mid-log phase organisms. After allowing 3 hours for the samples to diffuse into the underlayer gel, a nutrient-rich overlay gel was poured and the plates were incubated for 24 hours at 37° C. to allow surviving organisms to form microcolonies. The diameters of the clear zones were measured and expressed in "units" (10 units=1 mm) as. described previously.

E. coli ML-35 = test: radial diffusion assay in agarose gels; type: cell-based; conditions: for minimal microbicidal concentration: E. coli, Table 2; for inhibitory activity (FIG. 4a): E. coli ML-35
Procedure: as §1, §2

[1] = system: L. monocytogenes, Strain EGD; test: radial diffusion assay in agarose gels; type: cell-based; conditions: for minimal microbicidal concentration: Table 2
Procedure: as §1, §2

[2] = system: lipid polysaccharide (LPS) of the Gram-negative bacterium E. coli strain 0.55B5; test: Limulus amebocyte lysate (LAL) test for endotoxin binding; type: biochemical; design: key to LAL gel formation: ++ signifies a solid gel (no inhibition); + indicates increased viscosity without solid gel formation (partial inhibition); 0 indicates that gelation was absent (complete inhibition); conditions: for concentration giving complete inhibition of LAL gelation / LAL gel formation: LPS 0.05 endotoxin unit/ml; for LAL gel formation: Table 3; for concentration giving complete inhibition of LAL gelation, molar: converted from μg/ml
Procedure: The prophenins of the invention were tested for their ability to bind the lipid polysaccharide (LPS) of the Gram-negative bacterium E. coli strain 0.55B5. The assay was the Limulus amebocyte lysate (LAL) test for endotoxins conducted in the presence and absence of the test compounds. The test was conducted using the procedure described in Sigma Technical Bulletin No. 210 as revised in December 1992 and published by Sigma Chemical Company, St. Louis, Mo.
The LAL test is based on the ability of LPS to effect gelation in the commercial reagent E-TOXATE ™ which is prepared from the lysate of circulating amebocytes of the Horseshoe Crab Limulus polyphemus. As described in the technical bulletin, when exposed to minute quantities of LPS, the lysate increases in opacity as well as viscosity and may gel or clot depending on the concentration of endotoxin. The technical bulletin goes on to speculate that the mechanism appears analogous to the clotting of mammalian blood and involves the steps of activation of a trypsin-like preclotting enzymes by the LPS in the presence of calcium ion, followed by enzymic modifications of a "coagulogen" by proteolysis to produce a clottable protein. These steps are believed tied to the biologically active or "pyrogenic" portion of the molecule. It has been shown previously that detoxified LPS (or endotoxin) gives a negative LAL test.
Polymyxin B is a cyclic 1.2 kD acylated […] obtained from Bacillus polymyxa. Polymyxin B was used as a positive control since it is known to inhibit LPS-induced Limulus hemocyte lysate clotting.
In the assay, the amounts of prophenin-1 and polymyxin B (78% free polymyxin, Sigma) were preincubated in a final volume of 0.2 ml and the test mixtures contained LPS at a final concentration of 0.05 endotoxin unit/ml and E-TOXATE™ at the same concentration. The test compounds were incubated together with the LPS for 15 minutes before the E-TOXATE™ was added to a final volume (after E-TOXATE™ addition) of 0.2 ml. The tubes were then incubated for 60 minutes at 37° C. and examined for the formation of a gel.

For “HNP-1: human defensin (HNP-1), used as control”, the “inhibitory activity (FIG. 4c)” value (C. albicans, strain 820) was “substantially noninhibitory”.

With “HNP-2: control peptide as headed in Table 2; the text names human defensin HNP-1 (CYCRIPACIAGERRYGTCIYQGRLWAFCC; ends and bridges not checked; cysteine pairing not given here; UniProt P59665 66-94, looked up)” the minimal microbicidal concentration (E. coli ML-35) was 80.0 µg/mL, the minimal microbicidal concentration [1] was 12.0 µg/mL and the minimal microbicidal concentration (C. albicans, strain 820) was greater than 150 µg/mL.

“PG-3: protegrin-3 (PG3), used as control (RGGGLCYCRRRFCVCVGR; ends and bridges not checked; cysteine pairing not given here; UniProt P32196 131-148, looked up)” was tested, and the “inhibitory activity (FIG. 4a)” value (E. coli ML-35) was “more inhibitory than HNP-1”, the minimal microbicidal concentration (E. coli ML-35) was 8.6 µg/mL and the minimal microbicidal concentration [1] was 9.0 µg/mL. For the same molecule, the minimal microbicidal concentration (C. albicans, strain 820) was 6.9 µg/mL and the “inhibitory activity (FIG. 4c)” value (C. albicans, strain 820) was “successful antifungals”.

With Polymyxin B the “concentration giving complete inhibition of LAL gelation” value [2] was 5 µg/mL, the LAL gel formation ([2]; peptide 0.16 μg/ml) was “++” and the LAL gel formation ([2]; peptide 0.31 μg/ml) was “++”. The LAL gel formation ([2]; peptide 0.63 μg/ml) was “++”, the LAL gel formation ([2]; peptide 1.25 μg/ml) was “++” and the LAL gel formation ([2]; peptide 2.5 μg/ml) was “+”. The LAL gel formation ([2]; peptide 5.0 μg/ml) was 0, the LAL gel formation ([2]; peptide 10.0 μg/ml) was 0 and the “concentration giving complete inhibition of LAL gelation, molar” value [2] was “≈ 4.2 μM”.

B1: Prophenin-1: 79-residue proline-rich antimicrobial peptide purified from porcine leukocytes; sequence SEQ ID NO:1 (b87-b94, FIG. 3) (peptide)
chain: AFPPPNVPGPRFPPPNFPGPRFPPPNFPGPRFPPPNFPGPRFPPPNFPGPPFPPPIFPGPWFPPPPPFRPPPFGPPRFP
For B1, the “inhibitory activity (FIG. 4a)” value (E. coli ML-35) was “comparable in inhibitory activity to PG3 and NP1”, the minimal microbicidal concentration (E. coli ML-35) was 15.2 µg/mL and the “specificity for Gram-negative bacteria” value (E. coli ML-35; from Table 2, E. coli versus L. monocytogenes and C. albicans) was “highly specific for Gram-negative bacteria”. The “concentrations at which some activity was shown (FIG. 4b)” value [1] was “above 100 μg/ml”, the minimal microbicidal concentration [1] was 122.2 µg/mL and the “inhibitory activity (FIG. 4b)” value ([1]; versus the other three antibiotic peptides) was “substantially less inhibitory”. For the same molecule, the minimal microbicidal concentration (C. albicans, strain 820) was greater than 150 µg/mL, the “inhibitory activity (FIG. 4c)” value (C. albicans, strain 820) was “substantially noninhibitory” and the “concentration giving complete inhibition of LAL gelation” value [2] was 0.625 µg/mL. For the same molecule, the LAL gel formation ([2]; peptide 0.16 μg/ml) was “++”, the LAL gel formation ([2]; peptide 0.31 μg/ml) was “++” and the LAL gel formation ([2]; peptide 0.63 μg/ml) was 0. It also gave an LAL gel formation ([2]; peptide 1.25 μg/ml) of 0, an LAL gel formation ([2]; peptide 2.5 μg/ml) of 0 and an LAL gel formation ([2]; peptide 5.0 μg/ml) of 0. For the same molecule, the “concentration giving complete inhibition of LAL gelation, molar” value [2] was “≈ 72 nM” and the “effective concentration in inhibiting LPS” value ([2]; intact molecule) was 35 to 70 nM.
